# Article PMC13485499, “Neoliensinine promotes lysosomal cell death in T cell malignancies via a novel STING-TUBA1B pathway” (Genes & Diseases, 2025)
# Target: T1, Stimulator of interferon genes (STING) (Homo sapiens, UniProt Q86WV6)
# T1 construct: gene STING1
# Experiment: DARTS in Jurkat and Hut102 cell lysates ([…]); weaker than NeoL
# Format: cell-based
# T1 sequence (Q86WV6 whole entry): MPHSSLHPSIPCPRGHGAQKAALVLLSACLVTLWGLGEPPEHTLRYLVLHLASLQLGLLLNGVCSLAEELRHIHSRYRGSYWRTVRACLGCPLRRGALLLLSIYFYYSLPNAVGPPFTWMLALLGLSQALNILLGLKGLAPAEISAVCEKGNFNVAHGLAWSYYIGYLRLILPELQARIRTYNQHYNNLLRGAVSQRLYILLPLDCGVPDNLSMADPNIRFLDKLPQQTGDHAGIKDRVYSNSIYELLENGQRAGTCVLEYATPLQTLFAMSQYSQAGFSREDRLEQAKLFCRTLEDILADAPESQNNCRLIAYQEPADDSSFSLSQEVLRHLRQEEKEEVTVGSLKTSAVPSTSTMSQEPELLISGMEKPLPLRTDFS
smiles,measurement,value
"COc1ccc(C[C@@H]2c3cc(Oc4cc(C[C@@H]5c6cc(O)c(OC)cc6CCN5C)ccc4O)c(OC)cc3CCN2C)cc1 [IsoL, isoliensinine]",DARTS in Jurkat and Hut102 cell lysates (80 μmol/L); weaker than NeoL,incubation with NeoL and IsoL led to increased STING in the Jurkat and Hut102 cell lysates
